Results taken from BindingDB's records for patent US20250313563 (The Broad Institute, 2025).
pIC50: −log10 of the molar value. Values joined by “and” are separate entries in the source; they are usually repeats but may differ in a detail not shown here. Equal entries are not always repeated.

Tests used:
[1] = biological target: Glycogen synthase kinase-3 alpha (Homo sapiens, UniProt P49840); test: TR-FRET Assay
Procedure, shortened: (§1)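 Enzyme and test compound were first incubated together for 30 minutes in assay buffer. The kinase reaction followed and was stopped with EDTA. The pSer641 signal was read by time-resolved FRET.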

[2] = biological target: Glycogen synthase kinase-3 beta (Homo sapiens, UniProt P49841); test: TR-FRET Assay
Glycogen synthase kinase-3 beta, sequence (P49841 whole entry): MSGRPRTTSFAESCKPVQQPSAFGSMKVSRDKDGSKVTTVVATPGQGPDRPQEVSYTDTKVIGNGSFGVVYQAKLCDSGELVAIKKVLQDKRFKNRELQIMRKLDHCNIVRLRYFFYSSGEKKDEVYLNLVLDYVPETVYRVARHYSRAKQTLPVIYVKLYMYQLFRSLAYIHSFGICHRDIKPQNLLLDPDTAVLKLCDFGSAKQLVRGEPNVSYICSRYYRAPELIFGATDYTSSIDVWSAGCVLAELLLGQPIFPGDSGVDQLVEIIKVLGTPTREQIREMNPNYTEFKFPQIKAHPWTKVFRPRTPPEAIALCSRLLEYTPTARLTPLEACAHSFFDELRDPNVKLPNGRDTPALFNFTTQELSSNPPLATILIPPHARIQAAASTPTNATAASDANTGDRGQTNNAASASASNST
Procedure, shortened: as §1

Glycogen synthase kinase-3 alpha, sequence (P49840 whole entry): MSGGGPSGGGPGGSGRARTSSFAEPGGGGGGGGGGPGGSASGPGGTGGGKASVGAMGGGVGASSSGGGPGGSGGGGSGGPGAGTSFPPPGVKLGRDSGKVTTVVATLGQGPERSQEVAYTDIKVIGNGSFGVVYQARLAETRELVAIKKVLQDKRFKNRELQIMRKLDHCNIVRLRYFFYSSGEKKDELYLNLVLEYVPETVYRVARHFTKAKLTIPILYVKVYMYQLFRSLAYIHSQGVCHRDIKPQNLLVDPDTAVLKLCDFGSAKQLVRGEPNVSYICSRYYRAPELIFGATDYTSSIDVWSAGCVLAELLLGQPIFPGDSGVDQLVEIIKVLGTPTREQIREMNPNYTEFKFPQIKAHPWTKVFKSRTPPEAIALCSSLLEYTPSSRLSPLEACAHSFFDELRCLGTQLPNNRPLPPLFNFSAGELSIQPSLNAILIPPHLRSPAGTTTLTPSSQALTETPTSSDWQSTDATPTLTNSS

Structure (SMILES) | pIC50 [1] | pIC50 [2]
CC[C@@]1(c2cccc(-c3ccnc4ccccc34)c2)C2=CN=NC2NC2=C1C(=O)CC(C)(C)C2 (stereo partly drawn) [US20250313563, Compound 944031] | > 7.00 | > 7.00
CC[C@@]1(c2cccc(-c3cc(OC)ncc3F)c2)C2=CN=NC2NC2=C1C(=O)CC(C)(C)C2 (stereo partly drawn) [US20250313563, Compound 944032] | 6.00 to 7.00 | 5.30 to 6.00
CC[C@]1(c2cccc(-c3ccnc4ccccc34)c2)C2=CN=NC2NC2=C1C(=O)CC(C)(C)C2 (stereo partly drawn) [US20250313563, Compound 944034] | < 5.30 | < 5.30
CC[C@]1(c2cccc(-c3cc(OC)ncc3F)c2)C2=CN=NC2NC2=C1C(=O)CC(C)(C)C2 (stereo partly drawn) [US20250313563, Compound 944035] | 5.30 to 6.00 | < 5.30
CC[C@]1(c2cccc(-c3ccnc4c3CCCC4)c2)C2=CN=NC2NC2=C1C(=O)CC(C)(C)C2 (stereo partly drawn) [US20250313563, Compound 944036] | 5.30 to 6.00 | < 5.30
CC[C@]1(c2cccc(-c3cnnc(C)c3)c2)C2=CN=NC2NC2=C1C(=O)NC(C)(C)C2 (stereo partly drawn) [US20250313563, Compound 944071] | 5.30 to 6.00 | < 5.30
CC[C@@]1(c2cccc(-c3cnnc(C)c3)c2)C2=CN=NC2NC2=C1C(=O)NC(C)(C)C2 (stereo partly drawn) [US20250313563, Compound 944074] | > 7.00 and 6.00 to 7.00 | 6.00 to 7.00 and < 5.30
CC[C@@]1(c2cccc(N(C)c3nccc(C)n3)c2)C2=CN=NC2NC2=C1C(=O)CC(C)(C)C2 (stereo partly drawn) [US20250313563, Compound 945329] | 6.00 to 7.00 | 5.30 to 6.00
CC[C@]1(c2cccc(C(F)(F)F)c2)C2=CN=NC2NC2=C1C(=O)N[C@H](c1ccccc1)C2 (stereo partly drawn) [US20250313563, Compound 945361] | > 7.00 | 6.00 to 7.00
CC[C@]1(c2cccc(C(F)(F)F)c2)C2=CN=NC2NC2=C1C(=O)N[C@@H](c1ccccc1)C2 (stereo partly drawn) [US20250313563, Compound 945362] | 5.30 to 6.00 | < 5.30
CC[C@@]1(c2cccc(C(F)(F)F)c2)C2=CN=NC2NC2=C1C(=O)N[C@@H](c1ccccc1)C2 (stereo partly drawn) [US20250313563, Compound 945364] | < 5.30 | < 5.30
CC[C@]1(c2cccc(C(F)(F)F)c2)C2=C(N=NC2)NC2=C1C(=O)N(C)C2 [US20250313563, Compound 945367] | 6.00 to 7.00 | 5.30 to 6.00
CC[C@@]1(c2cccc(C(F)(F)F)c2)C2=C(N=NC2)NC2=C1C(=O)N(C)C2 [US20250313563, Compound 945368] | < 5.30 | < 5.30
CC[C@]1(c2cccc(C(F)(F)F)c2)C2=C(N=NC2)NC2=C1C(=O)N(c1ccccc1)C2 [US20250313563, Compound 945376] | < 5.30 | < 5.30
CC[C@@]1(c2cccc(C(F)(F)F)c2)C2=CN=NC2NC2=C1C(=O)N(c1ccccc1)C2 (stereo partly drawn) [US20250313563, Compound 945377] | 6.00 to 7.00 | 5.30 to 6.00
CC[C@]1(c2cccc(C(F)(F)F)c2)C2=C(N=NC2)NC2=C1C(=O)N[C@H]2C [US20250313563, Compound 945379] | 6.00 to 7.00 | 5.30 to 6.00
CC[C@@]1(c2cccc(C(F)(F)F)c2)C2=C(N=NC2)NC2=C1C(=O)N[C@@H]2C [US20250313563, Compound 945380] | < 5.30 | < 5.30
CC[C@@]1(c2cccc(C(F)(F)F)c2)C2=C(N=NC2)NC2=C1C(=O)N[C@H]2C [US20250313563, Compound 945381] | < 5.30 | < 5.30
CC[C@]1(c2cccc(C(F)(F)F)c2)C2=CN=NC2NC2=C1C(=O)NC[C@H]2C (stereo partly drawn) [US20250313563, Compound 945383] | > 7.00 | 6.00 to 7.00
CC[C@@]1(c2cccc(C(F)(F)F)c2)C2=CN=NC2NC2=C1C(=O)NC[C@H]2C (stereo partly drawn) [US20250313563, Compound 945385] | < 5.30 | < 5.30

Structure (SMILES) | pIC50 [1] | pIC50 [2]
CC1(C)CC(=O)C2=C(C1)NC1=C(CN=N1)C21CCC(C(=O)N2CCCC2)CC1 (stereo not drawn) [US20250313563, Compound 945394] | 6.00 to 7.00 | 5.30 to 6.00
CN(C)C(=O)C1CCC2(CC1)C1=C(N=NC1)NC1=C2C(=O)CC(C)(C)C1 (stereo not drawn) [US20250313563, Compound 945395] | 6.00 to 7.00 | 5.30 to 6.00
CC1(C)CC(=O)C2=C(C1)NC1=C(CN=N1)C21CCC(C(=O)N2CCCC2)CC1 (stereo not drawn) [US20250313563, Compound 945396] | 6.00 to 7.00 | 6.00 to 7.00
CNC(=O)C1CCC2(CC1)C1=C(N=NC1)NC1=C2C(=O)CC(C)(C)C1 (stereo not drawn) [US20250313563, Compound 945397] | 6.00 to 7.00 | 6.00 to 7.00
CCC1(c2cccc(-c3ccnc(C)c3OC)c2)C2=CN=NC2NC2=C1C(=O)CC(C)(C)C2 (stereo not drawn) [US20250313563, Compound 945458] | > 7.00 | > 7.00
CCC1(c2cccc(C3=CN=NC3)c2)C2=C(CC(C)(C)NC2=O)NC2N=NC(C)=C21 (stereo not drawn) [US20250313563, Compound 945459] | > 7.00 | > 7.00
CCC1(c2cccc(-c3cn(C)nc3C)c2)C2=C(CC(C)(C)NC2=O)NC2N=NC(C)=C21 (stereo not drawn) [US20250313563, Compound 945460] | > 7.00 | > 7.00
CCC1(c2cccc(-c3ccncc3C)c2)C2=CN=NC2NC2=C1C(=O)NC(C)(C)C2 (stereo not drawn) [US20250313563, Compound 945461] | > 7.00 | > 7.00
CCC1(c2cccc(-c3c(C)nn(C)c3C)c2)C2=CN=NC2NC2=C1C(=O)NC(C)(C)C2 (stereo not drawn) [US20250313563, Compound 945462] | > 7.00 | > 7.00
CCC1(c2cccc(-c3cc(C)nc(OC(F)F)c3)c2)C2=CN=NC2NC2=C1C(=O)CC(C)(C)C2 (stereo not drawn) [US20250313563, Compound 945463] | 6.00 to 7.00 | 5.30 to 6.00
CCC1(c2cccc(S(=O)(=O)C(C)C)c2)C2=CN=NC2NC2=C1C(=O)NC(C)(C)C2 (stereo not drawn) [US20250313563, Compound 945464] | > 7.00 | > 7.00
CCC1(c2cccc(S(=O)(=O)C3CC3)c2)C2=CN=NC2NC2=C1C(=O)NC(C)(C)C2 (stereo not drawn) [US20250313563, Compound 945465] | > 7.00 | > 7.00
CCC1(c2cccc(N(C)C3CC3)c2)C2=CN=NC2NC2=C1C(=O)CC(C)(C)C2 (stereo not drawn) [US20250313563, Compound 945466] | 6.00 to 7.00 | 5.30 to 6.00
CCCc1cc(-c2cccc(C3(CC)C4=CN=NC4NC4=C3C(=O)CC(C)(C)C4)c2)ccn1 (stereo not drawn) [US20250313563, Compound 945467] | > 7.00 | 6.00 to 7.00
CCC1(c2cccc(-c3cc(C)ncc3OC)c2)C2=CN=NC2NC2=C1C(=O)CC(C)(C)C2 (stereo not drawn) [US20250313563, Compound 945468] | > 7.00 | 6.00 to 7.00
CC[C@]1(c2cccc(-c3ccncc3CO)c2)C2=CN=NC2NC2=C1C(=O)CC(C)(C)C2 (stereo partly drawn) [US20250313563, Compound 945469] | > 7.00 | > 7.00
CC[C@@]1(c2cccc(-c3cn(C)nc3C)c2)C2=CN=NC2NC2=C1C(=O)NC(C)(C)C2 (stereo partly drawn) [US20250313563, Compound 945470] | > 7.00 and 6.00 to 7.00 | > 7.00 and 5.30 to 6.00
CC[C@@]1(c2cccc(-c3ccncc3OC)c2)C2=CN=NC2NC2=C1C(=O)CC(C)(C)C2 (stereo partly drawn) [US20250313563, Compound 945471] | 5.30 to 6.00 and < 5.30 | 5.30 to 6.00 and < 5.30
CC[C@]1(c2cccc(-c3ncnn3C)c2)C2=CN=NC2NC2=C1C(=O)CC(C)(C)C2 (stereo partly drawn) [US20250313563, Compound 945472] | > 7.00 | 6.00 to 7.00
